Where a SMILES comes first, the peptide text is derived from it.
| logP | Compound |
| --- | --- |
| 4.2 | CCOC(=O)c1cccc2c1CC(c1ccc(OC)cc1)C(OC(C)=O)C(=O)N2CCN(C)C (stereo unspecified) |
| 3.28 | CCCC(=NOCC)C1=C(O)CC(C)(C2CC2)OC1=O (stereo unspecified) |
| 3.38 | O=C(O)CCCCCON=C(c1ccnnc1)c1cccc(C(F)(F)F)c1 |
| 1.97 | OCC1OC(Oc2ccc3cc(Br)ccc3c2)C(O)C(O)C1O (stereo unspecified) |
| 1.74 | N#Cc1cccc(Cn2cccn2)c1 |
| -0.65 | CNc1ccncc1S(=O)(=O)NC(=NC#N)NC(C)C |
| 0.75 | NC(=O)Cc1c[nH]c2ccccc12 |
| -1.98 | CC(NC(=O)C(N)Cc1c[nH]c2ccccc12)C(=O)O (stereo unspecified) |
| 0.4 | CCCc1c(O)c(=O)cc(C)n1C |
| 0.91 | CC1CCN(CC2CN=C(N)O2)CC1 (stereo unspecified) |
| 5.6 | COc1ccc(C2Cc3c(cccc3C(F)(F)F)N(CCN(C)C)C(=O)C2C)cc1 (stereo unspecified) |
| 3.5 | CCN(CCO)CCCOc1cc2ncnc(Nc3cc(CC(=O)Nc4cccc(F)c4F)[nH]n3)c2cc1OC |
| 2.98 | CCc1cccc(CNc2[nH]cnc3ncnc2-3)c1 |
| 4.4 | CCOC(=O)C(C)(Cc1cccc2ccccc12)S(=O)(=O)c1ccc([N+](=O)[O-])cc1 (stereo unspecified) |
| 1.63 | Nc1nnnn1-c1ccc(Br)cc1 |
| 3.12 | CCCOc1cccc(CNc2[nH]cnc3ncnc2-3)c1 |
| 3.9 | COc1ccc(C2Cc3c(OC)cccc3N(CCN(C)C)C(=O)C2OC(C)=O)cc1 (stereo unspecified) |
| 4.22 | O=C(NCC(F)(F)F)NS(=O)(=O)c1cnccc1NC1CCCCCCC1 |
| 2.74 | CCCCCOCCCNc1[nH]cnc2ncnc1-2 |
| 1.92 | CC(C)(O)C1CCC2(C)CCCC(=O)C2C1 (stereo unspecified) |
| 1.09 | C=CCNc1ncnc2nc[nH]c12 |
| 1.43 | CCOP(=O)(OCC)C(C)(C)[N+]([O-])=Cc1ccc([N+](=O)[O-])cc1 |
| 1.87 | CN1CC(O)N(C(=O)NC2CCCCC2)C1=O (stereo unspecified) |
| 0.47 | CCN(CC)NC(=O)NS(=O)(=O)c1ccc(C)cc1 |

| logP | Compound |
| --- | --- |
| 2.3 | COc1ccc(CCNCC(O)COc2ccc(-c3nc(C(N)=O)c[nH]3)cc2)cc1OC (stereo unspecified) |
| -1.94 | CC(C)CC(N)C(=O)NC(Cc1ccc(O)cc1)C(=O)O (stereo unspecified) |
| -0.27 | N[C@@H](Cc1c[nH]c2ccccc12)C(=O)N[C@@H](Cc1c[nH]c2ccccc12)C(=O)O (H-Trp-Trp-OH) |
| 2.25 | Cc1oc2nc3oc(=O)cc(C)c3cc2c1C |
| 3 | Cc1ccc(-n2c(Cc3c(C)[nH]c4ccccc34)n[nH]c2=S)cc1 |
| 0.42 | CCCC(=O)NCCCCCN(O)C(=O)CCC(=O)NCCCCCN(O)C(=O)CCC(=O)NCCCCCN(O)C(C)=O |
| 1.08 | CCNc1nc(N)nc(O)n1 |
| 3.61 | CC(C)CCCCNc1[nH]cnc2ncnc1-2 |
| 3.59 | CCCON=C(C)c1cccc(Oc2nc(OC)cc(OC)n2)c1C(=O)OC |
| 3.2 | CCCCCN(C)CC(=O)Nc1c(C)cccc1C |
| 3.3 | CCCCCCOc1ccc(CC(=O)O)cc1OC |
| 3.2 | COc1ccc(C2Cc3cc(OC)ccc3N(CCN(C)C)C(=O)C2OC(C)=O)cc1 (stereo unspecified) |
| -0.86 | OCCCNc1ncnc2c1ncn2C1OC(CO)C(O)C1O (stereo unspecified) |
| 1.22 | CCOC(=O)NNc1ccccc1 |
| 0.9 | COc1nc(C)nc(Cl)c1NC1=NCCN1 |
| 0.75 | COCCCNc1[nH]cnc2ncnc1-2 |
| 4.47 | CCCCCCCCNC1=NS(=O)N=C1NCCSCc1ccc(CN(C)C)o1 (stereo unspecified) |
| -0.6 | CSCC(NC(C)=O)C(N)=O (stereo unspecified) |
| 0.9 | O=C1CCC(=O)N1c1cccc(Cl)c1Cl |
| 1.94 | O=C(O)CCCCON=C(c1ccccc1)c1ncccn1 |
| -1.87 | NC(Cc1ccc(O)cc1)C(=O)NC(Cc1ccc(O)cc1)C(=O)O (stereo not drawn) (H-Tyr-Tyr-OH; configuration not given here) |
| 3.05 | c1ccc(CSSc2ncc[nH]2)cc1 |
| 1.64 | O=C1Nc2ccc3cc4ccccc4nc3c2CO1 |

| Compound | logP |
| --- | --- |
| CCN(CC)C1CCc2c(OC)cccc2C1C (stereo unspecified) | 3.47 |
| COP(=O)(OC)Oc1c(Cl)cc(C)cc1Cl | 2.66 |
| CNC1CCc2c(OC)cccc2C1C (stereo unspecified) | 2.42 |
| CC1CC(=O)NN=C1c1ccc(-n2cnc3c2CCCC3)cc1 (stereo unspecified) | 2.52 |

— the OPERA property sets (Mansouri et al. 2018)
